Assays:
[1] = molecular target: T1, PPARδ (PDK4-PPRE) (Homo sapiens, UniProt Q03181); test: PDK4-PPRE luciferase assay in HEK-293 cells; type: cell-based
T1 construct: expressed in transfected cells; host or cells: HEK-293
T1 sequence (Q03181 1-441): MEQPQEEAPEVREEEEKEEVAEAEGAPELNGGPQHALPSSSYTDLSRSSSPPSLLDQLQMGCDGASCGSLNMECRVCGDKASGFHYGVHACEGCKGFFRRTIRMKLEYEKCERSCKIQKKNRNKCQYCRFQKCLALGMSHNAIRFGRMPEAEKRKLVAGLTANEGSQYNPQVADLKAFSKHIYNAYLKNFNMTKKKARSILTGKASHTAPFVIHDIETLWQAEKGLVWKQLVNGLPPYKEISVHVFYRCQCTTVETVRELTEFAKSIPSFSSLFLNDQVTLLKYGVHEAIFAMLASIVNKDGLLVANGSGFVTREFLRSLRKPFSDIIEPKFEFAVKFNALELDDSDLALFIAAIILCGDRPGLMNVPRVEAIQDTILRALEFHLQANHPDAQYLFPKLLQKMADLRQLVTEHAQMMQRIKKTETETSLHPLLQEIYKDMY
T1 sequence (P19793 1-462 partner): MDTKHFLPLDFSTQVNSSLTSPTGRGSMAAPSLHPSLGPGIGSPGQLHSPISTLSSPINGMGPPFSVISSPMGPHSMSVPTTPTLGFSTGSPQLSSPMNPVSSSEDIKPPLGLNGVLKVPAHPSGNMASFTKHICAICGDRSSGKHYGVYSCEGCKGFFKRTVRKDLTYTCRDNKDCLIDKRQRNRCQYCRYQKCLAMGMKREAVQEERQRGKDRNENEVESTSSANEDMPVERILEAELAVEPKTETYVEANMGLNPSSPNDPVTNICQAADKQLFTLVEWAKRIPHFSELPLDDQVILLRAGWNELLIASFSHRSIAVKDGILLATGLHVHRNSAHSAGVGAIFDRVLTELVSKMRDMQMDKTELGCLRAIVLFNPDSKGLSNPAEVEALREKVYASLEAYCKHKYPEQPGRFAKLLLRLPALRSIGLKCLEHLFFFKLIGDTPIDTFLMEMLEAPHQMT
Description: (§1) To validate the specificity of the novel compounds towards activation of PPARγ/δ targets, we tested the compounds capacity to bind to select PPARγ/δ Peroxisome Proliferator Response Elements (PPRE). The PPRE are unique sites located in the promoter region where PPARs bind and transcriptionally activate the target genes. AP2-PPRE is the PPARγ target involved in adipocyte growth and differentiation. PDK4-PPRE is a PPARδ target involved in regulating energy metabolism in the cell. These PPREs were inserted into a PGL3 luciferase vectors containing CMV promoters (ADDGENE) using PCR. These vectors were co-transfected with RXR, PPARγ/PPARδ and p-galactosidase vectors into HEK-293 cells using Lipofectamine 2000 (Invitrogen). Relative light units (RLU) were measured using a Glomax Luminometer (Promega). Data were standardized to p-galactosidase activity using ONPG (Promega).

[2] = molecular target: T2, PPARγ (AP2-PPRE) (Homo sapiens, UniProt P37231); test: AP2-PPRE luciferase assay in HEK-293 cells; type: cell-based; settings: luciferase assay, HEK-293 cells, 10 μM
T2 construct: expressed in transfected cells; host or cells: HEK-293
T2 sequence (P37231 1-505): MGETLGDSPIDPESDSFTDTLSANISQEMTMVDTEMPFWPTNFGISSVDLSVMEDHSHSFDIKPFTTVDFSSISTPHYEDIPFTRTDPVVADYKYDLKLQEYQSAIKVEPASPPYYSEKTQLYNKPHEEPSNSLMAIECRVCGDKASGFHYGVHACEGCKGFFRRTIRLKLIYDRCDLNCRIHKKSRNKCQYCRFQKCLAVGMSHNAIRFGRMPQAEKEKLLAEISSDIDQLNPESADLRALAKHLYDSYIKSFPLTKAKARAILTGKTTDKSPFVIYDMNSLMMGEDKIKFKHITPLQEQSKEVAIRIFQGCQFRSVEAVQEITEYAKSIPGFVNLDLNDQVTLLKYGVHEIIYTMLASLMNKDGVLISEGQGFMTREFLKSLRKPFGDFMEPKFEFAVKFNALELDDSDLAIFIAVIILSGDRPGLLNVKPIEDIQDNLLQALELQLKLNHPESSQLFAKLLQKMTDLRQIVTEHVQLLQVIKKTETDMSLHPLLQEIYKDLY
T2 sequence (P19793 1-462 partner): T1 sequence (P19793 1-462 partner)
Description: as §1

[3] = system: 3T3-L1 adipocytes; test: Lipid accumulation by oil red-o staining; type: cell-based; settings: 6 days, oil red-o stain
Protocol: 3T3L1 adipocytes were cultured and treated with the novel compounds for a period of 6 days. Lipid accumulation was determined by oil red-o staining, and measured the absorbance spectrophotometrically at a wavelength of 510 nm and standardized to total protein concentrations. Data from lipid accumulation studies were compared to cells treated with rosiglitazone (a full PPARγ agonist).

[4] = system: C2C12 skeletal muscle cells; test: Mitochondrial biogenesis markers by quantitative RT-PCR; type: cell-based; settings: 4 days
Protocol: Therefore, to test the effects of the novel compounds on mitochondrial biogenesis, C2C12 skeletal muscle cells were cultured and treated with the novel compounds for 4 days. Changes associated with markers for mitochondrial biogenesis were determined by quantitative real time PCR.

[5] = system: db/db mice; test: Hippocampal slice electrophysiology (LTP, PTP); type: in vivo
[6] = Biodistribution by LC-Mass Spectral analysis; settings: mice, 3 mg/kg (table); for concentration at 4 h: mouse, po, 3 mg/kg
[7] = in vivo; cited from earlier work
[8] = Heart size (heart weight to body weight ratio); type: in vivo; settings: 10 mg/kg oral daily for 1 month, wild type and db/db mice
Protocol: Diabetic db/db mice were fed a normal rodent chow diet. […] Mice were then weighed and their hearts were extracted and weighed. The heart weight of the mice compared to the body weight of the mice was then calculated based upon heart weight to body weight ratio.

In the case of `COc1ccc(CN(CCN2C(=O)c3ccccc3C2=O)S(=O)(=O)c2c(C)cc(C)cc2C)cc1` [Compound 3-91], the “Binding affinity for the PDK4-PPRE” value [1] is reported as “less binding affinity”, the “Binding affinity for the AP2-PPRE” value [2] is reported as “strong binding affinity” and the Lipid accumulation [3] is reported as “comparable to rosiglitazone”.

With `CCOC(CNCc1ccc(C(F)(F)F)cc1)OCC` [Compound 3-121] the “Binding affinity for the PDK4-PPRE” value [1] was “less binding affinity”, the “Binding affinity for the AP2-PPRE” value [2] was “less binding affinity” and the Lipid accumulation [3] was “less lipid accumulation”. The Lipid accumulation ([3]; listed as compound 3-121) was “insignificant induction of adiposity”.

For `CC(C(=O)O)c1ccc(CNCc2ccc(Cl)c(Cl)c2)cc1` (stereo not shown) [Compound 4-23], the Lipid accumulation [3] was “less lipid accumulation”.

In the case of `Cc1cc(SCc2sc(-c3ccc(C(F)(F)F)c(F)c3)nc2C)ccc1OCC(=O)O` [GW0742, reference compound], the “Gene expression of mitochondrial markers” value [4] is reported as “increases”.

In the case of `CN(CCOc1ccc(CC2SC(=O)NC2=O)cc1)c1ccccn1` (stereo not shown) [Rosiglitazone, rosiglitazone, reference compound], the “Amelioration of LTP reduction” value ([5]; ICV) is reported as over 50%, the “Change in the slope of fEPSP after sixty minutes of induction of LTP” value ([5]; ICV) is reported as 148.33±2.5% and the “fEPSP slope (LTP studies)” value ([5]; oral) is reported as 126±5.3%. For the same compound, the Concentration ([6]; Brain, oral, 4 hours) was “Not Detected”, the concentration at 4 h ([6]; adipose, Concentration) was 13 ng/mL and the concentration at 4 h ([6]; adipose, Tissue Concentration) was 5 ng/mL. The concentration at 4 h ([6]; adipose, Tissue Distribution) was 2.24 ng/mL, the concentration at 4 h ([6]; blood, Concentration) was 247 ng/mL and the concentration at 4 h ([6]; heart, Concentration) was 12.8 ng/mL. The concentration at 4 h ([6]; heart, Tissue Concentration) was 2.12 ng/mL, the concentration at 4 h ([6]; heart, Tissue Distribution) was 0.64 ng/mL and the concentration at 4 h ([6]; liver, Concentration) was 250 ng/mL. For the same compound, the concentration at 4 h ([6]; liver, Tissue Concentration) was 8.89 ng/mL, the concentration at 4 h ([6]; liver, Tissue Distribution) was 4.95 ng/mL and the Half-life [7] was 4 h. The Heart size [8] was “increase in heart size”.

From patent US9422239B1, “Dual PPAR-δ PPAR-γ agonists” (Auburn University, priority 2013, dated 2016)
